From patent US20140148454A1, “SUBSTITUTED AMINO-ACRYLCARBOXAMIDES AS KCNQ2/3 MODULATORS” (GRÜNENTHAL GMBH, priority 2012, published 2014) come the findings set out here.

pEC50: −log10 of the molar value.

The target of assay [1] is T1, KCNQ2/3 channels (Homo sapiens, UniProt O43525+O43526).
T1 construct: expressed in transfected cells; host or cells: CHO-K1 cells kept under selection antibiotics
Kind of assay: Fluorescence assay using a voltage sensitive dye (fluorimetry). The conditions noted are these: CHO-K1 cells expressing KCNQ2/3 channels. The class given is cell-based. The procedure:
Method I. Fluorescence Assay Using a Voltage Sensitive Dye (Fluorimetry) […] CHO-K1 cells expressing KCNQ2/3 channels are cultivated adherently at 37° C., 5% CO2 and 95% humidity in cell culture bottles (e.g. 80 cm^2 TC flasks, Nunc) with DMEM-high glucose (Sigma Aldrich, D7777) including 10% FCS (PAN Biotech, e.g. 3302-P270521) or alternatively MEM Alpha Medium (1×, liquid, Invitrogen, #22571), 10% fetal calf serum (FCS) (Invitrogen, #10270-106, heat-inactivated) and the necessary selection antibiotics.
Before being sown out for the measurements, the cells are washed with 1×DPBS buffer Ca^2+/Mg^2+-free (e.g. Invitrogen, #14190-094) and detached from the bottom of the culture vessel by using Accutase (PAA Laboratories, #L11-007) (incubation with Accutase for 15 min at 37° C.). The cell number is determined using a CASY™ cell counter (TCC, Scharfe System). Depending on the optimal density for each individual cell line, 20,000-30,000 cells/well/100 μl are seeded onto 96-well Corning™ CeIIBIND™ assay plates (Flat Clear Bottom Black Polystyrene Microplates, #3340). Freshly seeded cells are then left to settle for one hour at room temperature, followed by incubation for 24 hours at 37° C., 5% CO2 and 95% humidity.
The voltage-sensitive fluorescent dye from the Membrane Potential Assay Kit (Red™ Bulk format part R8123 for FLIPR, MDS Analytical Technologies™) is prepared by dissolving the contents of one vessel Membrane Potential Assay Kit Red Component A in 200 ml of extracellular buffer (ES buffer, 120 mM NaCl, 1 mM KCl, 10 mM HEPES, 2 mM CaCl2, 2 mM MgCl2, 10 mM glucose; pH 7.4). After removal of the nutrient medium, the cells are washed once with 200 μl of ES buffer, then loaded for 45 min at room temperature in 100 μl of dye solution in the dark.
Fluorescence measurements are carried out in a BMG Labtech FLUOstar™, BMG Labtech NOVOstar™ or BMG Labtech POLARstar™ instrument (525 nm excitation, 560 nm emission, Bottom Read mode). After incubation with the dye, 50 μl of the test substances in the desired concentrations, or 50 μl of ES buffer for control purposes, are applied to the wells of the assay plate and incubated for 30 min at room temperature while being shielded from light. The fluorescence intensity of the dye is then measured for 5 min and the fluorescence value F1 of each well is thus determined at a given, constant time. 15 μl of a KCl solution are then added to each well (final concentration of potassium ions 92 mM). The change in fluorescence intensity is subsequently monitored until all the relevant values have been obtained (mainly 5-30 min). At a given time post KCl application, a fluorescence value F2 is determined, in this case at the time of the fluorescence peak.
For calculation, the fluorescence intensity F2 is corrected for the fluorescence intensity F1, and the activity (ΔF/F) of the target compound on the potassium channel is determined as follows:
In order to determine whether a substance has agonistic activity, is determined by adding to the well only the buffer solution instead of the test substance, determining the value F1K of the fluorescence intensity, adding the potassium ions as described above, and measuring a value F2K of the fluorescence intensity. F2K and F1K are then calculated as follows: […]
A substance has an agonistic activity on the potassium channel if it is possible to conclude that a target compound has agonistic activity if Calculations of EC50 and IC50 values are carried out with the aid of ‘Prism v4.0’ software (GraphPad Software™).

In assay [2] the test system is withdrawal reflex of the rat tail (tail flick) to radiant heat beam. The experiment in a line: Low-intensity tail flick test (rat). The note with it: dose 10 mg/kg (dose in brackets), MPE = percentage of maximum possible effect. The class given is in vivo. The procedure:
Method II. Low-Intensity Tail Flick Test (Rat)
In the low-intensity tail flick test, the determination of the antinociceptive effect of the compounds according to the invention towards an acute noxious thermal stimulus is carried out by measuring the withdrawal reflex of the rat tail (tail flick) in response to a radiant heat beam (analgesia meter; model 2011 of the company Rhema Labortechnik, Hofheim, Germany) according to the method described by D'Amour and Smith (J. Pharm. Exp. Ther. 72, 74 79 (1941). To this end, the rats were placed in a plexiglas restrainer, and a low-intensity radiant heat beam (48° C.) was focused onto the dorsal surface of the tail root. The stimulus intensity was adjusted to result in a mean pre-drug control withdrawal latency of about 7 s, thus also allowing a supraspinal modulation of the spinally mediated acute nociceptive reflex. […] Before administration of a compound according to the invention, the animals were pre-tested twice in the course of five minutes and the mean of these measurements was calculated as the pre-test mean. The antinociceptive effect was determined at 20, 40 and 60 min after peroral compound administration. The antinociceptive effect was calculated based on the increase in the tail withdrawal latency according to the following formula and is expressed as percentage of the maximum possible effect (MPE [%]): […]

In the case of `CCCc1cc(N2CCOCC2)nc(C)c1C(=O)NCc1ccc(Cl)cc1` [Example 4, N-[(4-Chlorophenyl)-methyl]-2-methyl-6-morpholin-4-yl-4-propyl-pyridine-3-carboxylic acid amide], the Emax in assay [1] (relative to retigabine = 100%, read-out: Fluorimetry % efficacy (retigabine = 100%)) was 187%. Moreover, the pEC50 in assay [1] (voltage-sensitive dye, read-out: Fluorimetry EC50/IC50) is 6.58. Besides, the “Low intensity tail flick, rat, peroral, MPE (dose)” value in assay [2] is given as 42 (10) %.
